Data taken from ChEMBL document CHEMBL5500342, “Rational molecular design converting fascaplysin derivatives to potent broad-spectrum inhibitors against bacterial pathogens via targeting FtsZ” (Eur J Med Chem, 2024).
The source made the active and inactive calls. No cut-off for these calls is given here.

Columns and labels:
Escherichia coli [1] = assay: Drug resistance, ratio of MIC for penicillin-susceptible Escherichia coli ATCC25922 incubated for 18 to 24 hrs and measured after 4 passages to MIC for penicillin-susceptible Escherichia coli ATCC25922 measured after 18 to 24 hrs; format: functional
Staphylococcus aureus [2] = assay: Inhibition of biofilm formation in methicillin-resistant Staphylococcus aureus ATCC43300 assessed as decrease in biofilm formation rate at 16 times of MIC incubated for 24 hrs by crystal violet staining based analysis relative to control; format: functional; parameters: scale not given: the % may be the effect or the level left
Cell membrane [3] = assay: Disruption of cell membrane integrity in penicillin-susceptible Escherichia coli ATCC25922 assessed as appearance of wrecked cells at 4 times of MIC incubated for 2 hrs by transmission electron microscopic analysis; format: cell membranes
Escherichia coli [4] = assay: Drug resistance, ratio of MIC for penicillin-susceptible Escherichia coli ATCC25922 incubated for 18 to 24 hrs and measured after 21 passages to MIC for penicillin-susceptible Escherichia coli ATCC25922 measured after 18 to 24 hrs; format: functional
[5] = Cytotoxicity against mouse RAW264.7 cells assessed as cell viability at 6.25 microg/ml incubated for 24 hrs by CCK8 assay relative to control; format: toxicity, cell-based; settings: at 6.25 µg/mL, read-out: Activity
Escherichia coli [6] = assay: Antibacterial activity against penicillin-susceptible Escherichia coli ATCC25922 assessed as log reduction in bacterial count at 4 times of MIC measured after 24 hrs by time kill kinetics assay; format: functional, organism-based
Staphylococcus aureus [7] = assay: Inhibition of biofilm formation in methicillin-resistant Staphylococcus aureus ATCC43300 assessed as decrease in biofilm formation rate at 4 times of MIC incubated for 24 hrs by crystal violet staining based analysis relative to control; format: functional; parameters: scale not given: the % may be the effect or the level left
Cell membrane [8] = assay: Disruption of cell membrane integrity in methicillin-resistant Staphylococcus aureus ATCC43300 assessed as cell wall disruption at 4 times of MIC incubated for 2 hrs by transmission electron microscopic analysis; format: cell membranes
Cell membrane [9] = assay: Disruption of cell membrane integrity in methicillin-resistant Staphylococcus aureus ATCC43300 assessed as increase in cellular debris at 4 times of MIC incubated for 2 hrs by transmission electron microscopic analysis; format: cell membranes
[10] = Cytotoxicity against mouse RAW264.7 cells assessed as cell viability at 3.125 microg/ml incubated for 24 hrs by CCK8 assay relative to control; format: toxicity, cell-based; settings: dose 3.125 µg/ml, read-out: Activity
Escherichia coli [11] = assay: Antibacterial activity against penicillin-susceptible Escherichia coli ATCC25922 assessed as reduction in bacterial count incubated for 24 hrs by time kill kinetics assay; format: functional, organism-based
Escherichia coli [12] = assay: Antibacterial activity against penicillin-susceptible Escherichia coli ATCC25922 assessed as log reduction in bacterial count at 2 times of MIC measured after 12 hrs by time kill kinetics assay; format: functional, organism-based

Molecule `O=C1c2ccccc2-[n+]2ccc3c([nH]c4ccc(-c5ccccc5F)cc43)c21.[Cl-]` has a Ratio (Escherichia coli [1]) of 12 and an Activity (Staphylococcus aureus [2]) of 12%.

In the case of `O=C1c2ccccc2-[n+]2ccc3c([nH]c4ccc(-c5ccccc5Cl)cc43)c21.[Cl-]`, the Activity (Cell membrane [3]) is reported as “Active”.

With `O=C1c2ccccc2-[n+]2ccc3c([nH]c4ccc(-c5ccccc5C(F)(F)F)cc43)c21.[Cl-]` the Ratio (Escherichia coli [4]) was 12, the viability at 24 h, 6.25 microg/ml [5] was 57% and the Activity (Escherichia coli [6]) was “Active”. The Activity (Staphylococcus aureus [7]) was 18%, the Activity (Cell membrane [8]) was “Active” and the Activity (Cell membrane [9]) was “Active”. For the same molecule, the viability at 24 h, 3.125 microg/ml [10] was 81%, the Activity (Escherichia coli [11]) was “Dose-Dependent Effect” and the Activity (Escherichia coli [12]) was “inactive”.
